pEC50: −log10 of the molar value.
What was measured:
[1] = molecular target: T1, CFTR-mediated transepithelial chloride transport in primary human bronchial epithelial cells from a ΔF508 homozygous CF donor (Homo sapiens, UniProt P13569, DEL508-508); experiment: TECC24 recording of CFTR-mediated transepithelial chloride transport in CF-HBE cells (AUC fold over DMSO); format: cell-based; settings: test agent 10 μM, 48 hours incubation, AUC of forskolin-stimulated IEQ relative to DMSO
T1 construct: Primary human bronchial epithelial cells from a ΔF508 homozygous CF donor; host or cells: primary CF-HBE cells, ΔF508 homozygous donor
T1 sequence (P13569 with tags, fused parts or gaps DEL508-508): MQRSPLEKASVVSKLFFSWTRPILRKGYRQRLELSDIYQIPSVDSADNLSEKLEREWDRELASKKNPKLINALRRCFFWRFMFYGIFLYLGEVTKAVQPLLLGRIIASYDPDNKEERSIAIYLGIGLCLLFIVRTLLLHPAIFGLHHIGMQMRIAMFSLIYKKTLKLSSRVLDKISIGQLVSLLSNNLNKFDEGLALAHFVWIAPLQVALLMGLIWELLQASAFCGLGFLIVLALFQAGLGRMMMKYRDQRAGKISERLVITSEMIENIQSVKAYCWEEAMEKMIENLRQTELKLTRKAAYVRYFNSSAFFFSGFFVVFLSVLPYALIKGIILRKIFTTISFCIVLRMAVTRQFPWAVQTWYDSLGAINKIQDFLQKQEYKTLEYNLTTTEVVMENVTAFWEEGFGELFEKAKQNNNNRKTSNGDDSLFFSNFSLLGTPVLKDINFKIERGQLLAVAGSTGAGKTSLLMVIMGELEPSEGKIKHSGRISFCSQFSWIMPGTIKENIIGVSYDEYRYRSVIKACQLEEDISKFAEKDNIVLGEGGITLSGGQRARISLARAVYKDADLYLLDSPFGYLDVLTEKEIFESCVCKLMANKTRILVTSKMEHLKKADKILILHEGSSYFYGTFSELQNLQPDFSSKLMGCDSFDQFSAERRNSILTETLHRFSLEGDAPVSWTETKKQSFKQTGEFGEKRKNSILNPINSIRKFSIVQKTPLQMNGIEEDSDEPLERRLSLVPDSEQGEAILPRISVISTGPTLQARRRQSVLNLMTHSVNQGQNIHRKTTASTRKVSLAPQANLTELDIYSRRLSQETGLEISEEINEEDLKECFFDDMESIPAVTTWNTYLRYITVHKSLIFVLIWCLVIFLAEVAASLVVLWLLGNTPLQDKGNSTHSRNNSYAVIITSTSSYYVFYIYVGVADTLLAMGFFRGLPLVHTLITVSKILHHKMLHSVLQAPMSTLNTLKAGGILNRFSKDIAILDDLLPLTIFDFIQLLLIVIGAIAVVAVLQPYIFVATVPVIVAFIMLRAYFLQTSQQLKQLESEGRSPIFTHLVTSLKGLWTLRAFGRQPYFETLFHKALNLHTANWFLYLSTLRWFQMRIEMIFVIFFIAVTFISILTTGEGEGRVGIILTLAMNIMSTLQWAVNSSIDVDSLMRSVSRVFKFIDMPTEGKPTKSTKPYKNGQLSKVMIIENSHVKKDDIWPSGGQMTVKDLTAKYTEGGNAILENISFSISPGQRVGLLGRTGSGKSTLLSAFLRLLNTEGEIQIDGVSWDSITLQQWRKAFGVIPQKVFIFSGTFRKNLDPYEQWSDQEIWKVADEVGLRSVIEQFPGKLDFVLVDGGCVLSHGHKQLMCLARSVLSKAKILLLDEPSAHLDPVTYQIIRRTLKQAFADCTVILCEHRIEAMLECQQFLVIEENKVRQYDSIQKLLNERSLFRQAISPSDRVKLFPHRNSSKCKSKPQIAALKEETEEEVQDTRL
Protocol: Example 316: TECC24 AUC Fold Over DMSO @ 10 uM
The effects of a test agent on CFTR-mediated transepithelial chloride transport was measured using TECC24 recording analysis. Test agents were solubilized in DMSO. Solubilized test agents were mixed with incubation medium containing DMEM/F12, Ultroser G (2%; Crescent Chemical, catalog #67042), Hyclone Fetal Clone II (2%; GE Healthcare, catalog #SH30066.02), bovine brain extract (0.25%; Lonza, catalog #CC-4098), insulin (2.5 μg/mL), IL-13 (10 ng/mL), hydrocortisone (20 nM), transferrin (2.5 μg/mL), triiodothyronine (500 nM), ethanolamine (250 nM), epinephrine (1.5 μM), phosphoethanolamine (250 nM), and retinoic acid (10 nM). Primary human bronchial epithelial cells from a ΔF508 homozygous CF donor (CF-HBE cells; from University of North Carolina Cystic Fibrosis Tissue Procurement Center), grown on Transwell HTS 24-well cell culture inserts (Costar, catalog #3378), were exposed to test agents or controls dissolved in incubation medium. The CF-HBE cells were cultured at 36.5° C. for 48 hours before TECC24 recordings were performed in the presence or absence of test agent, a positive control or vehicle (DMSO).
Following incubation, the transwell cell culture inserts containing the test agent or control-treated CF-HBE cells were loaded onto a TECC24 apparatus (TECC v7 or MTECC v2; EP Design) to record the transepithelial voltage (VT) and resistance (TEER) using 4 AgCl electrodes per well configured in current-clamp mode. The apical and basolateral bath solutions both contained (in mM) 140 NaCl, 5 KCl, 2 CaCl2), 1 MgCl2, 10 Hepes, and 10 glucose (adjusted to pH 7.4 with NaOH). To inhibit basal Na+ absorption, the ENaC inhibitor benzamil (10 μM) was added to the bath. Then, the adenylate cyclase activator, forskolin (10 μM), was added to the bath to activate CFTR. The forskolin-stimulated Cl-transport was halted by addition of CFTR inhibitor-172 (20 μM) to the bath at the end of the experiment to confirm specificity. VT and TEER recordings were digitally acquired at routine intervals using TECC or MTECC software (EP Design). VT and TEER were transformed into equivalent transepithelial Cl-current (IEQ), and the Area Under the Curve (AUC) of the IEQ time course between forskolin and CFTR inhibitor-172 addition was generated using Excel (Microsoft). Efficacy is expressed as the ratio of the test agent AUC divided by vehicle AUC. EC50s based on AUC are generated using the non-linear regression log(agonist) vs. response function in Prism software (GraphPad) with Hill Slope fixed=1.
If a test agent increased the AUC of the forskolin-stimulated IEQ relative to vehicle in CF-HBE cells, and this increase was inhibited by CFTR inhibitor-172, then the test agent was considered a CFTR corrector.

[2] = molecular target: T2, human Cystic Fibrosis Transmembrane Conductance Regulator (CFTR) harboring the ΔF508 mutation (Homo sapiens, UniProt P13569, DEL508-508); experiment: H441 cell ΔF508-CFTR-HRP cell surface assay (Emax and EC50); format: cell-based; settings: for Emax: NCI-H441, NA = Not active
T2 construct: expressed in transfected cells; host or cells: H441 carcinoma line (G418-selected)
T2 sequence (P13569 with tags, fused parts or gaps DEL508-508): as above
Summary of the method: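 H441 and 41o- bronchial epithelial cells expressing ΔF508-CFTR with an extracellular-loop-4 HRP tag were treated with a 15-point compound series (24.5–0.001 μM) for two nights, H441 at 27° C, 41o- at 37° C with 0.0005 mg/ml doxycycline. Surface HRP luminescence read; % of maximum VX809 signal and EC50 derived.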

Row | Compound | TECC24 AUC fold over DMSO @10 μM [1] | pEC50 [2] | Emax [2] [%]
1 | O=C(N[C@@H](Cc1ccccc1)C(=O)O)c1ccc2ccccc2c1OCc1cccc(C(F)(F)F)c1 [Example 95, (1-((3-(trifluoromethyl)benzyl)oxy)-2-naphthoyl)-L-phenylalanine] | C (“C” refers to AUC @10 uM <4) | 4.80 | 29.3
2 | CC(C)(C)[C@H](NC(=O)c1ccc2cc(F)ccc2c1OCc1ccc(SC(F)(F)F)cc1)C(=O)O [Example 75, (S)-2-(6-fluoro-1-((4-((trifluoromethyl)thio)benzyl)oxy)-2-naphthamido)-3,3-dimethylbutanoic Acid] | B (“B” refers to AUC @10 uM between 4-6) | 6.15 | 94.2
3 | O=C(N[C@@H](Cc1ccccc1)C(=O)O)c1ccc2ccccc2c1OCCc1ccc(C(F)(F)F)cc1 [Example 97, (1-(4-(trifluoromethyl)phenethoxy)-2-naphthoyl)-L-phenylalanine] | C (“C” refers to AUC @10 uM <4) |  | 1.1
4 | CC(C)(SC1CCCC1)[C@H](NC(=O)c1ccc2cc(F)ccc2c1OCc1ccc(SC(F)(F)F)cc1)C(=O)O [Example 172] | C (“C” refers to AUC @10 uM <4) | 6.30 | 62.7
5 | CC(C)(C)[C@H](NC(=O)c1ccc2cc(O)ccc2c1OCc1ccc(C(F)(F)F)cc1)C(=O)O [Example 59, (S)-2-(6-hydroxy-1-((4-(trifluoromethyl)benzyl)oxy)-2-naphthamido)-3,3-dimethylbutanoic Acid] | C (“C” refers to AUC @10 uM <4) | 5.72 | 108
6 | O=C(N[C@H](C(=O)O)C1CCCC1)c1ccc2cc(F)ccc2c1OCc1ccc(OC(F)(F)F)cc1 [Example 119, (S)-2-cyclopentyl-2-(6-fluoro-1-((4-(trifluoromethoxy)benzyl)oxy)-2-naphthamido)acetic Acid] | A (“A” refers to AUC @10 uM >6) | 6.10 | 37.1
7 | CC(C)(c1ccccc1)[C@H](NC(=O)c1ccc2ccccc2c1OCc1ccc(SC(F)(F)F)cc1)C(=O)O [Example 5, (S)-3-methyl-3-phenyl-2-(1-((4-((trifluoromethyl)thio)benzyl)oxy)-2-naphthamido)butanoic Acid] | C (“C” refers to AUC @10 uM <4) | 6.10 | 100
8 | O=C(N[C@H](C(=O)O)C1Cc2ccccc2C1)c1ccc2ccccc2c1OCc1ccc(C(F)(F)F)cc1 [Example 143, (S)-2-(2,3-dihydro-1H-inden-2-yl)-2-(1-((4-(trifluoromethyl)benzyl)oxy)-2-naphthamido)acetic Acid] | B (“B” refers to AUC @10 uM between 4-6) | 5.72 | 135
9 | CC(C)(C)[C@H](NC(=O)c1ccc2cc(N)ccc2c1OCc1ccc(C(F)(F)F)cc1)C(=O)O [Example 52, (S)-2-(6-amino-1-((4-(trifluoromethyl)benzyl)oxy)-2-naphthamido)-3,3-dimethylbutanoic Acid] | C (“C” refers to AUC @10 uM <4) | 5.14 | 91.4
10 | CC(C)(SCC1CC1(F)F)[C@H](NC(=O)c1ccc2ccccc2c1OCc1ccc(C(F)(F)F)cc1)C(=O)O (stereo partly drawn) [Example 163, (2R)-3-(((2,2-difluorocyclopropyl)methyl)thio)-3-methyl-2-(1-((4-(trifluoromethyl)benzyl)oxy)-2-naphthamido)butanoic Acid] | C (“C” refers to AUC @10 uM <4) | 6.15 | 138

Second part, the compound after the results:

Row | TECC24 AUC fold over DMSO @10 μM [1] | pEC50 [2] | Emax [2] [%] | Compound
11 | B (“B” refers to AUC @10 uM between 4-6) | 4.94 | 80.8 | O=C(N[C@@H](Cc1ccc(C(F)(F)F)cc1)C(=O)O)c1ccc2cc(F)ccc2c1OCc1ccc(C(F)(F)F)cc1 [Example 197, (S)-2-(6-fluoro-1-((4-(trifluoromethyl)benzyl)oxy)-2-naphthamido)-3-(4-(trifluoromethyl)phenyl)propanoic Acid]
12 | A (“A” refers to AUC @10 uM >6) | 6.70 | 186 | CCC(C)(C)[C@H](NC(=O)c1ccc2ccc(C(F)(F)F)cc2c1OCc1ccc(OC(F)(F)F)cc1)C(=O)O [Example 296, (S)-3,3-dimethyl-2-(1-((4-(trifluoromethoxy)benzyl)oxy)-7-(trifluoromethyl)-2-naphthamido)pentanoic Acid]
13 | C (“C” refers to AUC @10 uM <4) | 5.47 | 112 | CC(C)(C)C[C@H](NC(=O)c1ccc2ccccc2c1OCc1nc2ccccc2s1)C(=O)O [Example 214, (S)-2-(1-(benzo[d]thiazol-2-ylmethoxy)-2-naphthamido)-4,4-dimethylpentanoic Acid]
14 | A (“A” refers to AUC @10 uM >6) | 5.92 | 125 | CC(C)(C)[C@H](NC(=O)c1ccc2c(F)cccc2c1OCc1ccc(OC(F)(F)F)cc1)C(=O)O [Example 221, (2S)-2-[[5-fluoro-1-[[4-(trifluoromethoxy)phenyl]methoxy]naphthalene-2-carbonyl]amino]-3,3-dimethyl-butanoic Acid]
15 | A (“A” refers to AUC @10 uM >6) | 6.40 | 260 | CCCC(C)(CC)[C@H](NC(=O)c1ccc2ccc(F)cc2c1OCc1ccc(C(F)(F)F)cc1)C(=O)O (stereo partly drawn) [Example 291, (2S)-3-ethyl-2-(7-fluoro-1-((4-(trifluoromethyl)benzyl)oxy)-2-naphthamido)-3-methylhexanoic Acid]
16 | A (“A” refers to AUC @10 uM >6) | 6.70 | 248 | Cc1cc2c(OCc3ccc(C(F)(F)F)cc3)c(C(=O)N[C@H](C(=O)O)C(C)(C)C)ccc2cc1F [Example 278, (S)-2-(6-fluoro-7-methyl-1-((4-(trifluoromethyl)benzyl)oxy)-2-naphthamido)-3,3-dimethylbutanoic Acid]
17 | A (“A” refers to AUC @10 uM >6) | 6.52 | 309 | CCC(C)(C)[C@H](NC(=O)c1ccc2ccc(C)cc2c1OCc1ccc(OC(F)(F)F)cc1)C(=O)O [Example 280, (S)-3,3-dimethyl-2-(7-methyl-1-((4-(trifluoromethoxy)benzyl)oxy)-2-naphthamido)pentanoic Acid]
18 | C (“C” refers to AUC @10 uM <4) | 6.05 | 115 | O=C(N[C@H](C(=O)O)C(c1ccccc1)c1ccccc1)c1ccc2cc(F)ccc2c1OCc1nc2ccccc2s1 [Example 216, (S)-2-(1-(benzo[d]thiazol-2-ylmethoxy)-6-fluoro-2-naphthamido)-3,3-diphenylpropanoic Acid]
19 | C (“C” refers to AUC @10 uM <4) | 6.10 | 122 | O=C(NC(C(=O)O)C1(C(F)(F)F)CC1)c1ccc2ccc(F)cc2c1OCc1ccc(OC(F)(F)F)cc1 (centres unmarked) [Example 240, 2-(7-fluoro-1-((4-(trifluoromethoxy)benzyl)oxy)-2-naphthamido)-2-(1-(trifluoromethyl)cyclopropyl)acetic Acid]
20 | A (“A” refers to AUC @10 uM >6) | 7.00 | 229 | CCC(C)(C)[C@H](NC(=O)c1ccc2ccc(C(F)(F)F)cc2c1OCc1ccc(C(F)(F)F)cc1)C(=O)O [Example 295, (S)-3,3-dimethyl-2-(7-(trifluoromethyl)-1-((4-(trifluoromethyl)benzyl)oxy)-2-naphthamido)pentanoic Acid]

Source: patent publication US12630498B2 (Genzyme Corporation, priority 2019, dated 2026)
